ChEMBL document CHEMBL1240439, “Synthesis and docking studies of novel benzopyran-2-ones with anticancer activity” (2010)
Active and inactive are the calls of the source.

How the values were obtained:
Assay type in all cases: functional
SF-295 = assay: Cytotoxicity against human SF295 cells assessed as cell growth at 10 uM after 48 hrs by sulforhodamine B assay
RPMI-8226 = assay: Cytotoxicity against human RPMI8226 cells assessed as cell growth at 10 uM after 48 hrs by sulforhodamine B assay
MOLT-4 = assay: Cytotoxicity against human MOLT4 cells assessed as cell growth at 10 uM after 48 hrs by sulforhodamine B assay
K562 = assay: Cytotoxicity against human K562 cells assessed as cell growth at 10 uM after 48 hrs by sulforhodamine B assay
NCI-H522 = assay: Cytotoxicity against human NCI-H522 cells assessed as cell growth at 10 uM after 48 hrs by sulforhodamine B assay
HT-29 = assay: Cytotoxicity against human HT-29 cells assessed as cell growth at 10 uM after 48 hrs by sulforhodamine B assay
PC-3 = assay: Cytotoxicity against human PC3 cells assessed as cell growth at 10 uM after 48 hrs by sulforhodamine B assay
UACC-62 = assay: Cytotoxicity against human UACC62 cells assessed as cell growth at 10 uM after 48 hrs by sulforhodamine B assay
HL-60(TB) = assay: Cytotoxicity against human HL-60(TB) cells assessed as cell growth at 10 uM after 48 hrs by sulforhodamine B assay
SR = assay: Cytotoxicity against human SR cells assessed as cell growth at 10 uM after 48 hrs by sulforhodamine B assay
EKVX = assay: Cytotoxicity against human EKVX cells assessed as cell growth at 10 uM after 48 hrs by sulforhodamine B assay
SK-MEL-2 = assay: Cytotoxicity against human SK-MEL-2 cells assessed as cell growth at 10 uM after 48 hrs by sulforhodamine B assay
OVCAR-4 = assay: Cytotoxicity against human OVCAR4 cells assessed as cell growth at 10 uM after 48 hrs by sulforhodamine B assay
T47D = assay: Cytotoxicity against human T47D cells assessed as cell growth at 10 uM after 48 hrs by sulforhodamine B assay
A549 = assay: Cytotoxicity against human A549 cells assessed as cell growth at 10 uM after 48 hrs by sulforhodamine B assay
HOP-62 = assay: Cytotoxicity against human HOP62 cells assessed as cell growth at 10 uM after 48 hrs by sulforhodamine B assay
HOP-92 = assay: Cytotoxicity against human HOP92 cells assessed as cell growth at 10 uM after 48 hrs by sulforhodamine B assay
NCI-H322M = assay: Cytotoxicity against human NCI-H322M cells assessed as cell growth at 10 uM after 48 hrs by sulforhodamine B assay
NCI-H460 = assay: Cytotoxicity against human NCI-H460 cells assessed as cell growth at 10 uM after 48 hrs by sulforhodamine B assay
NCI-H226 = assay: Cytotoxicity against human NCI-H226 cells assessed as cell growth at 10 uM after 48 hrs by sulforhodamine B assay
NCI-H23 = assay: Cytotoxicity against human NCI-H23 cells assessed as cell growth at 10 uM after 48 hrs by sulforhodamine B assay
COLO 205 = assay: Cytotoxicity against human COLO205 cells assessed as cell growth at 10 uM after 48 hrs by sulforhodamine B assay
HCC 2998 = assay: Cytotoxicity against human HCC2998 cells assessed as cell growth at 10 uM after 48 hrs by sulforhodamine B assay
HCT-116 = assay: Cytotoxicity against human HCT116 cells assessed as cell growth at 10 uM after 48 hrs by sulforhodamine B assay
HCT-15 = assay: Cytotoxicity against human HCT15 cells assessed as cell growth at 10 uM after 48 hrs by sulforhodamine B assay
KM12 = assay: Cytotoxicity against human KM12 cells assessed as cell growth at 10 uM after 48 hrs by sulforhodamine B assay
SW-620 = assay: Cytotoxicity against human SW620 cells assessed as cell growth at 10 uM after 48 hrs by sulforhodamine B assay
MCF7 = assay: Cytotoxicity against human MCF7 cells assessed as cell growth at 10 uM after 48 hrs by sulforhodamine B assay
MDA-MB-468 = assay: Cytotoxicity against human MDA-MB-468 cells assessed as cell growth at 10 uM after 48 hrs by sulforhodamine B assay
MDA-MB-231 = assay: Cytotoxicity against human MDA-MB-231 cells assessed as cell growth at 10 uM after 48 hrs by sulforhodamine B assay
Hs-578T = assay: Cytotoxicity against human Hs 578T cells assessed as cell growth at 10 uM after 48 hrs by sulforhodamine B assay
BT-549 = assay: Cytotoxicity against human BT549 cells assessed as cell growth at 10 uM after 48 hrs by sulforhodamine B assay
IGROV-1 = assay: Cytotoxicity against human IGROV1 cells assessed as cell growth at 10 uM after 48 hrs by sulforhodamine B assay
OVCAR-3 = assay: Cytotoxicity against human OVCAR-3 cells assessed as cell growth at 10 uM after 48 hrs by sulforhodamine B assay
OVCAR-5 = assay: Cytotoxicity against human OVCAR5 cells assessed as cell growth at 10 uM after 48 hrs by sulforhodamine B assay
OVCAR-8 = assay: Cytotoxicity against human OVCAR8 cells assessed as cell growth at 10 uM after 48 hrs by sulforhodamine B assay
SK-OV-3 = assay: Cytotoxicity against human SKOV3 cells assessed as cell growth at 10 uM after 48 hrs by sulforhodamine B assay
CCRF-CEM = assay: Cytotoxicity against human CCRF-CEM cells assessed as cell growth at 10 uM after 48 hrs by sulforhodamine B assay
786-0 = assay: Cytotoxicity against human 786-0 cells assessed as cell growth at 10 uM after 48 hrs by sulforhodamine B assay
A498 = assay: Cytotoxicity against human A498 cells assessed as cell growth at 10 uM after 48 hrs by sulforhodamine B assay
ACHN = assay: Cytotoxicity against human ACHN cells assessed as cell growth at 10 uM after 48 hrs by sulforhodamine B assay
SN12C = assay: Cytotoxicity against human SN12C cells assessed as cell growth at 10 uM after 48 hrs by sulforhodamine B assay
RXF 393 = assay: Cytotoxicity against human RXF393 cells assessed as cell growth at 10 uM after 48 hrs by sulforhodamine B assay
TK-10 = assay: Cytotoxicity against human TK10 cells assessed as cell growth at 10 uM after 48 hrs by sulforhodamine B assay
UO-31 = assay: Cytotoxicity against human UO31 cells assessed as cell growth at 10 uM after 48 hrs by sulforhodamine B assay
LOX IMVI = assay: Cytotoxicity against human LOXIMVI cells assessed as cell growth at 10 uM after 48 hrs by sulforhodamine B assay
M14 = assay: Cytotoxicity against human M14 cells assessed as cell growth at 10 uM after 48 hrs by sulforhodamine B assay
Malme-3M = assay: Cytotoxicity against human MALME-3M cells assessed as cell growth at 10 uM after 48 hrs by sulforhodamine B assay
MDA-MB-435 = assay: Cytotoxicity against human MDA-MB-435 cells assessed as cell growth at 10 uM after 48 hrs by sulforhodamine B assay
SK-MEL-28 = assay: Cytotoxicity against human SK-MEL-28 cells assessed as cell growth at 10 uM after 48 hrs by sulforhodamine B assay
SK-MEL-5 = assay: Cytotoxicity against human SK-MEL-5 cells assessed as cell growth at 10 uM after 48 hrs by sulforhodamine B assay
UACC-257 = assay: Cytotoxicity against human UACC257 cells assessed as cell growth at 10 uM after 48 hrs by sulforhodamine B assay
DU-145 = assay: Cytotoxicity against human DU145 cells assessed as cell growth at 10 uM after 48 hrs by sulforhodamine B assay
SF-268 = assay: Cytotoxicity against human SF268 cells assessed as cell growth at 10 uM after 48 hrs by sulforhodamine B assay
SF-539 = assay: Cytotoxicity against human SF539 cells assessed as cell growth at 10 uM after 48 hrs by sulforhodamine B assay
SNB-19 = assay: Cytotoxicity against human SNB19 cells assessed as cell growth at 10 uM after 48 hrs by sulforhodamine B assay
SNB-75 = assay: Cytotoxicity against human SNB75 cells assessed as cell growth at 10 uM after 48 hrs by sulforhodamine B assay
U-251 = assay: Cytotoxicity against human U251 cells assessed as cell growth at 10 uM after 48 hrs by sulforhodamine B assay

Measured: Activity

CCCc1cc(=O)oc2c(C)c(OCc3nnc(S)o3)ccc12
inactive: SF-295 | RPMI-8226 | MOLT-4 | K562 | NCI-H522 | HT-29 | PC-3 | UACC-62 | HL-60(TB) | SR | EKVX | SK-MEL-2 | OVCAR-4 | T47D | A549 | HOP-62 | HOP-92 | NCI-H322M | NCI-H460 | NCI-H226 | NCI-H23 | COLO 205 | HCC 2998 | HCT-116 | HCT-15 | KM12 | SW-620 | MCF7 | MDA-MB-468 | MDA-MB-231 | Hs-578T | BT-549 | IGROV-1 | OVCAR-3 | OVCAR-5 | OVCAR-8 | SK-OV-3 | CCRF-CEM | 786-0 | A498 | ACHN | SN12C | RXF 393 | TK-10 | UO-31 | LOX IMVI | M14 | Malme-3M | MDA-MB-435 | SK-MEL-28 | SK-MEL-5 | UACC-257 | DU-145 | SF-268 | SF-539 | SNB-19 | SNB-75 | U-251

CSc1nnc(COc2ccc3c(-c4ccccc4)cc(=O)oc3c2C)o1
inactive: SF-295 | RPMI-8226 | MOLT-4 | K562 | NCI-H522 | HT-29 | PC-3 | UACC-62 | HL-60(TB) | SR | EKVX | SK-MEL-2 | OVCAR-4 | T47D | A549 | HOP-62 | HOP-92 | NCI-H322M | NCI-H460 | NCI-H226 | NCI-H23 | COLO 205 | HCC 2998 | HCT-116 | HCT-15 | KM12 | SW-620 | MCF7 | MDA-MB-468 | MDA-MB-231 | Hs-578T | BT-549 | IGROV-1 | OVCAR-3 | OVCAR-5 | OVCAR-8 | SK-OV-3 | CCRF-CEM | 786-0 | A498 | ACHN | SN12C | RXF 393 | TK-10 | UO-31 | LOX IMVI | M14 | Malme-3M | MDA-MB-435 | SK-MEL-28 | SK-MEL-5 | UACC-257 | DU-145 | SF-268 | SF-539 | SNB-19 | SNB-75 | U-251
